{"source": "patent US20040191833A1", "about": "“Selective activation of cellular activities mediated through a common toll-like receptor” (3M Innovative Properties Company, priority 2003, published 2004)", "key": {"[1]": {"molecular_target": "T1, human TLR7 (Homo sapiens, UniProt Q9NYK1)", "T1 construct": "expressed in transfected cells; host or cells: Namalwa cells (ATCC CRL-1432), pCI-neo vector, electroporated, G418 selected, with pIFN-α1-luc reporter", "T1 sequence (Q9NYK1 27-1049)": "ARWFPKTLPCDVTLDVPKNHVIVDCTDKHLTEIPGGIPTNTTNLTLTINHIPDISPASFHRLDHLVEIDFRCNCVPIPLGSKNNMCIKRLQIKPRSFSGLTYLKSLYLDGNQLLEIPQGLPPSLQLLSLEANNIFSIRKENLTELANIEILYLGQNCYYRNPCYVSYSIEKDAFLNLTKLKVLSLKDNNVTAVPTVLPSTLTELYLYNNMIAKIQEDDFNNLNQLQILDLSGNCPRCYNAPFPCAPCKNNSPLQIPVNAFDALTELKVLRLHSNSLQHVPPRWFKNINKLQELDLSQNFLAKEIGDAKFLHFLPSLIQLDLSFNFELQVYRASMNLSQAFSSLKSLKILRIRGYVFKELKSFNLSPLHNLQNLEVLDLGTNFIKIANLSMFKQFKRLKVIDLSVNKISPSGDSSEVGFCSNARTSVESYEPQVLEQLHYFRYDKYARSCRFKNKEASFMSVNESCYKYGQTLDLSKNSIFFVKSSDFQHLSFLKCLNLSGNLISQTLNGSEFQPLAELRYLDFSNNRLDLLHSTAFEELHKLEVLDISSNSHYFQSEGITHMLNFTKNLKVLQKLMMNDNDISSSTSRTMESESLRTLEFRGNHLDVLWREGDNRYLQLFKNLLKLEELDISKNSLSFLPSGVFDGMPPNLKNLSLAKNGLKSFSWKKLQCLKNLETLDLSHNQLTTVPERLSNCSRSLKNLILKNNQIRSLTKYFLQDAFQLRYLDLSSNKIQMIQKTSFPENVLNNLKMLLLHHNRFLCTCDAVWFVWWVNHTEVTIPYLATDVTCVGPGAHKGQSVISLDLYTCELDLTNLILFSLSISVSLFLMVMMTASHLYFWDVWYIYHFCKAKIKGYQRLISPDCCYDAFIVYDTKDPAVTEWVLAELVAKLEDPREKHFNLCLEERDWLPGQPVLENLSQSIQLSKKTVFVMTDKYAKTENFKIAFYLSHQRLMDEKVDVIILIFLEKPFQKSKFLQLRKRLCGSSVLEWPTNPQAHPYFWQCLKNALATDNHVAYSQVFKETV", "assay": "TLR7 activation in Namalwa cells (IFN-α1 promoter luciferase reporter, N-TLR7/N-vector)", "assay_type": "cell-based", "details": "final IRM concentration 10 μM, 18 hours, normalized to the DMSO without compound control", "method": "(§1) In one embodiment, exemplified in Example 1, selective modulation of TLR7-mediated NF-κB activation and TLR7-mediated IFN-α1 induction were assayed. NF-κB activation was measured in genetically modified HEK293 cells (H-TLR7) by detecting TLR7-mediated NF-κB-dependent transcription of a luciferase reporter. IFN-α1 induction was measured in genetically modified Namalwa cells (N-TLR7) by detecting TLR-mediated IFN-α1-induced transcription of a luciferase reporter. Results are shown in Table 2 and are expressed as the fold increase in TLR7-mediated luciferase signal—(H-TLR7/H-vector) and (N-TLR7/N-vector), respectively—normalized to a control in which the cells were treated with vehicle that contained no IRM compound. In this assay, a compound was considered to induce the TLR7-mediated cellular activity if the compound generated at least a two-fold increase in the luciferase signal compared to the vector control.\nUnless otherwise indicated, all incubations were performed at 37° C. with 5% CO2 at 98% humidity.\nCulture medium was prepared from complete RPMI 1640 medium (BioSource International, Inc., Camarillo, Calif.). Fetal bovine serum (Atlas Biologicals, Inc., Ft. Collins, Colo.) was added to a final concentration of 7.5% (vol/vol); L-glutamine (BioSource International, Inc.) was added to 5 mM; and sodium pyruvate (BioSource International, Inc.) was added to 1 mM.\nNamalwa cells were grown by incubation in culture medium overnight. Cells were harvested by centrifugation in a tabletop centrifuge (1200 RPM for 5 minutes), and then resuspended in phosphate buffered sucrose to a concentration of 1.3×10^7 cells/mL.\nFor each transfection, a 750 μL aliquot of the cell suspension was placed in an electroporation cuvette with 4 mm gaps. Each aliquot received transfection DNA: 10 μg of pGL3-Enhancing vector (Promega Corp., Madison, Wis.) containing the human IFN-α1 promoter cloned into the BglII site (pIFN-α1-luc), and 10 μg of pCI-neo mammalian expression vector (Promega Corp.) either (1) unmodified (N-vector) or (2) containing an expressible human TLR7 gene (N-TLR7). The cell and vector mixtures were incubated at room temperature for 5 minutes. The cells were electroporated using a BioRad Gene Pulser (BioRad Laboratories, Hercules, Calif.) set to at 500 μF capacitance and […], then incubated at room temperature for 5 minutes.\nThe electroporated cells were suspended in 10 mL of culture medium and incubated overnight. Dead cells and debris were removed after 24 hours using a MACS Dead Cell Removal kit (Miltenyi Biotec, Auburn, Calif.). Cells were resuspended in 10 mL of culture medium and incubated for an additional 24 hours.\nTransfected cells were selected by adding G418 (Promega Corp., Madison, Wisc.) to a final concentration of 1 mg/mL and incubating the cells for seven days.\nThe selected transfected cells were counted and resuspended to a concentration of 1×10^6 cell per mL in culture medium. 100 μl aliquots of cells were placed in the wells of a white-walled, white-bottomed 96-well plate (Corning, Inc. Corning, N.Y.). 1.0 μL of an IRM compound from Table 1 (prepared at 1 mM in 100% DMSO) was added to some cell aliquots so that the final concentration of IRM compound was 10 μM. As a positive control, some cell aliquots were incubated with Sendai virus instead of IRM compound. As a negative control, some cell aliquots were incubated with DMSO without IRM compound. In all cases, the cells were incubated for 18 hours.\nThe plates were equilibrated to room temperature before 1 volume of reconstituted LucLight Plus (Packard Instruments, Meriden, Conn.) was added to each aliquot of cells. Each well of the plate was read on an LJL Analyst (LJL Biosystems, Inc., Sunnyvale, Calif.) set with a 5 minute dark adapt.\n(§2) The data are expressed as fold increase in TLR7-mediated luciferase signal—(H-TLR7/H-vector) and (N-TLR7/N-vector), respectively—normalized to the DMSO without compound control."}, "[2]": {"molecular_target": "T1, human TLR7", "assay": "TLR7 activation in HEK293 cells (NF-kB-luc luciferase reporter, H-TLR7/H-vector)", "assay_type": "cell-based", "details": "final IRM concentration 10 μM, 16 hours, normalized to the DMSO without compound control", "method": "as §1\nHEK293 medium was prepared from 90% Minimum Essential Medium (MEM) with 2 mM L-glutamine and Earle's Balanced Salt Solution (Invitrogen Corp., Rockville, Md.) adjusted to contain 1.5 g/L sodium bicarbonate, 0.1 mM non-essential amino acids, and 1.0 mM sodium pyruvate; 10% heat-inactivated fetal calf serum. HEK293 cells were cultured by incubating cells in HEK293 medium overnight at 37° C, 8% CO2.\nTwenty-four hours before transfection, HEK293 cells were adhered to a 10 cm dish (Corning 430167, Corning Inc., Corning, N.Y.) at 37° C., 8% CO2. The cells were co-transfected with (1) pIRES (BD Biosciences Clontech, Palo Alto, Calif.) either (a) unmodified (H-vector), or (b) containing an expressible human TLR7 gene (H-TLR7), and (2) NF-kB-luc reporter (Stratagene, La Jolla, Calif.) in a 10:1 ratio with Fugene 6 transfection reagent (Roche Diagnostics Corp., Indianapolis, Ind.) following the manufacturer's instructions. The plates were incubated for 24 hours following transfection and then selected in G-418 (400 μg/mL) for two weeks. The G-418-resistant cells containing either the expressible TLR7 gene or the empty vector were expanded in HEK293 medium supplemented with G-418 for stimulation experiments.\nThe transfected cells were plated in white opaque 96 well plates (Costar 3917, Corning Inc., Corning, N.Y.) at a concentration of 5×10^4 cells per well in 100 μL of HEK293 media and incubated at 37° C., 8% CO2 for 4 hours. The cells were stimulated with 1 μL of IRM compounds at 1 mM in DMSO (final IRM concentration of 10 μM) or 1 μL DMSO as a control. The plates were then incubated an additional 16 hours at 37° C., 5% CO2. The luciferase signal was read using the LucLite kit (Packard Instrument Co., Meriden, Conn.). Luminescence was measured on an LMAX luminometer (Molecular Devices Corp., Sunnyvale, Calif.).\nas §2"}}}
{"smiles": "COCCc1nc2c(N)nc3c(c2n1CC(C)(C)NS(C)(=O)=O)CCCC3", "note": "[IRM25, N-{2-[4-amino-2-(2-methoxyethyl)-6,7,8,9-tetrahydro-1H-imidazo[4,5-c]quinolin-1-yl]-1,dimethylethyl}methanesulfonamide]", "values": [{"measurement": "N-TLR7: fold increase in TLR7-mediated luciferase signal (N-TLR7/N-vector), IFN-α1 promoter reporter", "setting": "[1]", "value": 3.0, "unit": "fold"}, {"measurement": "H-TLR7: fold increase in TLR7-mediated luciferase signal (H-TLR7/H-vector), NF-κB-dependent reporter", "setting": "[2]", "value": 7.6, "unit": "fold"}]}
